Laboratory results taken from patent US9242996B2 (Novartis AG, priority 2013, dated 2016).

Target: activated ERK2 (Homo sapiens (Human), UniProt P28482)
Test: Activated ERK2 kinase assay, ERK2 New conditions (AlphaScreen, ERKtide phosphorylation)
Assay type: biochemical
Details: 0.25 nM ERK2, 200 nM ERKtide peptide, 35 μM ATP, 30 min preincubation
Description: The assay is carried out in 50 mM HEPES [pH 7.5], 5 mM MgCl2, 1 mM DTT, 0.01% Tween-20, 0.05% BSA using 0.25 nM ERK2, 200 nM ERKtide peptide and 35 μM ATP (all concentrations are final in the reaction) in a total volume of 10.25 μL. […] Compound dilution series are prepared in 100% DMSO. ERK2 is preincubated with compounds for 30 minutes at ambient temperature. Reaction is initiated by addition of a substrate cocktail of ERKtide peptide and ATP and is allowed to proceed for 2-3 hours at ambient temperature. Reaction is terminated by addition of 10 μL of a 2× stop buffer consisting of 100 mM Tris-Cl [pH 7.5], 25 mM EDTA, 0.01% Tween 20, 10 μg/mL of AlphaScreen Protein A Acceptor Beads, 10 μg/mL of Streptavidin Donor Beads (PerkinElmer, Waltham, Mass.), and 1.4 μg/mL phospho-EGF Receptor (Thr669) antibody (Cat #3056, Cell Signaling Technology, Danvers, Mass.). Terminated reactions are read, after overnight incubation in the dark, on an EnVision Multilabel Plate Reader (PerkinElmer, Waltham, Mass.), with excitation and emission wavelengths set to 680 nm and 570 nm, respectively. IC50 values are determined using a four-parameter fit.

activated ERK2, sequence (P28482 whole entry): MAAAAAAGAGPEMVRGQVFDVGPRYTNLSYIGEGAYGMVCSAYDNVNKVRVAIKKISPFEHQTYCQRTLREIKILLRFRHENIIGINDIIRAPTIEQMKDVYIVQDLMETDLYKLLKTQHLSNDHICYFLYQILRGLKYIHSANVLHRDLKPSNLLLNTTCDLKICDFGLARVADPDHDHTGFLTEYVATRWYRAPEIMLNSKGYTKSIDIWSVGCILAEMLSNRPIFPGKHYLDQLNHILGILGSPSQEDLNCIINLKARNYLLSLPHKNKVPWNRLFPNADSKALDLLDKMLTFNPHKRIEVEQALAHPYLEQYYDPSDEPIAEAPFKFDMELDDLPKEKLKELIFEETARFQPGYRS

IC50 [nM] | Compound
1.6 | CN1C[C@@H](c2cnc(N)c(-c3ccc(C(=O)N[C@H](CO)c4cccc(Cl)c4)c(F)c3)c2)CCC1=O [Example 36, 4-(2-amino-5-((R)-1-methyl-6-oxopiperidin-3-yl)pyridin-3-yl)-N—((S)-1-(3-chlorophenyl)-2-hydroxyethyl)-2-fluorobenzamide]
1.05 | CN1C[C@H](c2cnc(N)c(-c3ccc(C(=O)N[C@H](CO)c4cccc(Cl)c4)c(F)c3)c2)CCC1=O [Example 37, 4-(2-amino-5-((S)-1-methyl-6-oxopiperidin-3-yl)pyridin-3-yl)-N—((S)-1-(3-chlorophenyl)-2-hydroxyethyl)-2-fluorobenzamide]
8.09 | C[C@@H](NC(=O)c1ccc(-c2cc(C3CCC(=O)N(C)C3)cnc2N)cc1F)c1cccc(Cl)c1 (stereo partly drawn) [Example 38, 4-(2-amino-5-(1-methyl-6-oxopiperidin-3-yl)pyridin-3-yl)-N—((R)-1-(3-chlorophenyl)ethyl)-2-fluorobenzamide]
51 | CN1CC(c2cnc(N)c(-c3ccc(C(=O)N[C@H](CO)c4ccccc4)c(F)c3)c2)CC1=O (stereo partly drawn) [Example 41, 4-(2-amino-5-(1-methyl-5-oxopyrrolidin-3-yl)pyridin-3-yl)-2-fluoro-N—((S)-2-hydroxy-1-phenylethyl)benzamide]
5.44 | CN1CC(c2cnc(N)c(-c3ccc(C(=O)N[C@H](CO)c4cccc(Cl)c4)c(F)c3)c2)CC1=O (stereo partly drawn) [Example 42, 4-(2-amino-5-(1-methyl-5-oxopyrrolidin-3-yl)pyridin-3-yl)-N—((S)-1-(3-chlorophenyl)-2-hydroxyethyl)-2-fluorobenzamide]
5.32 | CN1C[C@@H](c2cnc(N)c(-c3ccc(C(=O)N[C@H](CO)c4cccc(Cl)c4)c(F)c3)c2)CC1=O [Example 43, 4-(2-amino-5-((R)-1-methyl-5-oxopyrrolidin-3-yl)pyridin-3-yl)-N—((S)-1-(3-chlorophenyl)-2-hydroxyethyl)-2-fluorobenzamide]
4.77 | CN1C[C@H](c2cnc(N)c(-c3ccc(C(=O)N[C@H](CO)c4cccc(Cl)c4)c(F)c3)c2)CC1=O [Example 44, 4-(2-amino-5-((S)-1-methyl-5-oxopyrrolidin-3-yl)pyridin-3-yl)-N—((S)-1-(3-chlorophenyl)-2-hydroxyethyl)-2-fluorobenzamide]
3.61 | CC1(c2cnc(N)c(-c3ccc(C(=O)N[C@H](CO)c4ccccc4)c(F)c3)c2)CCOCC1 [Example 45, (S)-4-(2-Amino-5-(4-methyltetrahydro-2H-pyran-4-yl)pyridin-3-yl)-2-fluoro-N-(2-hydroxy-1-phenylethyl)benzamide]
4790 | Nc1nccnc1-c1ccc(C(=O)NCc2ccccc2)cc1 [Example 46, 4-(3-aminopyrazin-2-yl)-N-benzylbenzamide]
0.818 | C[C@@H](NC(=O)c1ccc(-c2nc(C3CCOCC3)cnc2N)cc1F)c1ccccc1 [Example 47, (R)-4-(3-amino-6-(tetrahydro-2H-pyran-4-yl)pyrazin-2-yl)-2-fluoro-N-(1-phenylethyl)benzamide]
122 | Nc1ncc(C2CCOCC2)nc1-c1ccc(C(=O)N[C@@H]2CCCN(S(=O)(=O)c3ccccc3F)C2)c(F)c1 [Example 48, (R)-4-(3-amino-6-(tetrahydro-2H-pyran-4-yl)pyrazin-2-yl)-2-fluoro-N-(1-((2-fluorophenyl)sulfonyl)piperidin-3-yl)benzamide]
45.9 | Nc1ncc(C2CCOCC2)nc1-c1ccc(C(=O)N[C@@H]2CCCN(S(=O)(=O)c3ccccc3)C2)c(F)c1 [Example 49, (R)-4-(3-amino-6-(tetrahydro-2H-pyran-4-yl)pyrazin-2-yl)-2-fluoro-N-(1-(phenylsulfonyl)piperidin-3-yl)benzamide]
12.3 | CN(C(=O)c1ccc(-c2nc(C3CCOCC3)cnc2N)cc1F)[C@H](CO)c1ccccc1 [Example 53, (S)-4-(3-amino-6-(tetrahydro-2H-pyran-4-yl)pyrazin-2-yl)-2-fluoro-N-(2-hydroxy-1-phenylethyl)-N-methylbenzamide]
107 | Nc1ncc(C2CCOCC2)nc1-c1ccc(C(=O)N2COC[C@@H]2c2ccccc2)cc1 [Example 54, (S)-(4-(3-amino-6-(tetrahydro-2H-pyran-4-yl)pyrazin-2-yl)phenyl)(4-phenyloxazolidin-3-yl)methanone]
3.89 | CS(=O)(=O)N1CCC(c2cnc(N)c(-c3ccc(C(=O)N[C@H](CO)c4ccccc4)c(F)c3)n2)CC1 [Example 56, (S)-4-(3-amino-6-(1-(methylsulfonyl)piperidin-4-yl)pyrazin-2-yl)-2-fluoro-N-(2-hydroxy-1-phenylethyl)benzamide]
1.14 | C[C@@H](NC(=O)c1ccc(-c2nc(C3CCN(S(C)(=O)=O)CC3)cnc2N)cc1F)c1cccc(Cl)c1 [Example 57]

IC50 [nM] | Compound
3.61 | COC(=O)N1CCC(c2cnc(N)c(-c3ccc(C(=O)N[C@H](CO)c4ccccc4)c(F)c3)n2)CC1 [Example 58, (S)-methyl 4-(5-amino-6-(3-fluoro-4-((2-hydroxy-1-phenylethyl)carbamoyl)phenyl)pyrazin-2-yl)piperidine-1-carboxylate]
0.35 | COC(=O)N1CCC(c2cnc(N)c(-c3ccc(C(=O)N[C@H](CO)c4cccc(Cl)c4)c(F)c3)n2)CC1 [Example 59, (S)-methyl 4-(5-amino-6-(4-((1-(3-chlorophenyl)-2-hydroxyethyl)carbamoyl)-3-fluorophenyl)pyrazin-2-yl)piperidine-1-carboxylate]
12.4 | CC(=O)N1CCC(c2cnc(N)c(-c3ccc(C(=O)N[C@H](CO)c4ccccc4)c(F)c3)n2)CC1 [Example 60, (S)-4-(6-(1-acetylpiperidin-4-yl)-3-aminopyrazin-2-yl)-2-fluoro-N-(2-hydroxy-1-phenylethyl)benzamide]
1.24 | CC(=O)N1CCC(c2cnc(N)c(-c3ccc(C(=O)N[C@H](CO)c4cccc(Cl)c4)c(F)c3)n2)CC1 [Example 61, (S)-4-(6-(1-acetylpiperidin-4-yl)-3-aminopyrazin-2-yl)-N-(1-(3-chlorophenyl)-2-hydroxyethyl)-2-fluorobenzamide]
64.1 | COC(=O)N1CCC(c2cnc(N)c(-c3ccc(C(=O)N[C@H](CO)c4ccccc4)c(F)c3)c2)C1 (stereo partly drawn) [Example 62, methyl 3-(6-amino-5-(3-fluoro-4-(((S)-2-hydroxy-1-phenylethyl)carbamoyl)phenyl)pyridin-3-yl)pyrrolidine-1-carboxylate]
23.3 | CS(=O)(=O)N1CCC(c2cnc(N)c(-c3ccc(C(=O)N[C@H](CO)c4ccccc4)c(F)c3)c2)C1 (stereo partly drawn) [Example 63, 4-(2-amino-5-(1-(methylsulfonyl)pyrrolidin-3-yl)pyridin-3-yl)-2-fluoro-N-((S)-2-hydroxy-1-phenylethyl)benzamide]
177 | CCOCCc1cnc(N)c(-c2ccc(C(=O)N[C@H](CO)c3ccccc3)c(F)c2)n1 [Example 72, (S)-4-(3-amino-6-(2-ethoxyethyl)pyrazin-2-yl)-2-fluoro-N-(2-hydroxy-1-phenylethyl)benzamide]
172 | Nc1ncc(C2CCS(=O)(=O)CC2)cc1-c1ccc(C(=O)NCc2ccccc2)c(F)c1 [Example 78, 4-(2-amino-5-(1,1-dioxidotetrahydro-2H-thiopyran-4-yl)pyridin-3-yl)-N-benzyl-2-fluorobenzamide]
12.1 | CS(=O)(=O)c1cccc(CNC(=O)c2ccc(-c3nc(C4CC4)cnc3N)cc2F)c1 [Example 99, 4-(3-amino-6-cyclopropylpyrazin-2-yl)-2-fluoro-N-(3-(methylsulfonyl)benzyl)benzamide]
7.76 | C[C@@H]1C[C@H](c2cnc(N)c(-c3ccc(C(=O)NCc4cccc(S(C)(=O)=O)c4)cc3)n2)CCO1 [Example 100, 4-(3-amino-6-((2R,4R)-2-methyltetrahydro-2H-pyran-4-yl)pyrazin-2-yl)-N-(3-(methylsulfonyl)benzyl)benzamide]
76.9 | C[C@H]1C[C@@H](c2cnc(N)c(-c3ccc(C(=O)NCc4cccc(S(C)(=O)=O)c4)cc3)n2)CCO1 [Example 101, 4-(3-amino-6-((2S,4S)-2-methyltetrahydro-2H-pyran-4-yl)pyrazin-2-yl)-N-(3-(methylsulfonyl)benzyl)benzamide]
191 | COC1CCC(c2cnc(N)c(-c3ccc(C(=O)NCc4ccccc4)c(F)c3)n2)C1 (stereo not shown) [Example 104, 4-(3-amino-6-(3-methoxycyclopentyl)pyrazin-2-yl)-N-benzyl-2-fluorobenzamide]
1.16 | Cn1cc(-c2cnc(N)c(-c3ccc(C(=O)N[C@H](CO)c4ccccc4)c(F)c3)c2)cn1 [Example 107, (S)-4-(2-amino-5-(1-methyl-1H-pyrazol-4-yl)pyridin-3-yl)-2-fluoro-N-(2-hydroxy-1-phenylethyl)benzamide]
5.81 | Nc1ncc(C2CCOCC2)nc1-c1ccc2c(c1)OCCN(Cc1ccccc1)C2=O [Example 109, 8-(3-amino-6-(tetrahydro-2H-pyran-4-yl)pyrazin-2-yl)-4-benzyl-3,4-dihydrobenzo[f][1,4]oxazepin-5(2H)-one]
1000 | Nc1ncc(C2CCS(=O)(=O)CC2)cc1-c1ccc2c(c1)OCCN(Cc1ccccc1)C2=O [Example 110, 8-(2-amino-5-(1,1-dioxidotetrahydro-2H-thiopyran-4-yl)pyridin-3-yl)-4-benzyl-3,4-dihydrobenzo[f][1,4]oxazepin-5(2H)-one]
